Here are results for 12 molecules from PubChem BioAssay (NCI).

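96-well plates; 48 h exposure; 5 concentrations. Endpoints by linear interpolation between flanking doses. Not reached: highest tested concentration assigned. At the GI50, growth is halved. The concentration for full growth arrest is given as TGI.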

Test in all cases: growth of human tumour cells (NCI), 48 h
Test [1] has as its system HCT-116 colon.
Test [2] has as its system MOLT-4 leukemia.
Test [3] has as its system SN12C renal.
Test [4] concerns A549 NSCLC.
For test [5], the system named is A498 renal.
In test [6] the test system is MALME-3M melanoma.
For test [7], the system named is U251 CNS.
Test [8] deals with HOP-62 NSCLC.
The subject of test [9] is MDA-MB-435.
The test system of test [10] is T-47D breast.

Turning to `COC(=O)C1CCC(=NC2c3ccccc3-c3ccccc32)N1` (stereo unspecified), the TGI in test [1], in [2], in test [3], in [4], in test [5] and in [6] was above 100 µM throughout. Further, the TGI in [7] and in test [8] was above 100 µM in each case.

Consider `COC(=O)C(=O)C(C(=O)C(=O)Nc1ccccc1C(N)=O)c1nc2ccc(C(=O)c3ccccc3)cc2[nH]c1=O` (stereo unspecified), for which the TGI in test [1], in test [2], in test [3], in test [4], in test [5] and in [6] was above 100 µM in each case. This molecule also showed a TGI in test [7] above 100 µM.

Turning to `C/C(=N\NC(=S)N1CCC(C2CCN(C(=S)N/N=C(\C)c3ccccn3)CC2)CC1)c1ccccn1`, the TGI in [1], in [3], in test [4], in test [5], in [6] and in test [7] was above 100 µM throughout. This molecule returned a TGI in test [8] above 100 µM.

Turning to `Clc1ccccc1C1=NN(c2ccccc2)C2c3cc(Br)ccc3OCC12` (stereo unspecified), the TGI in test [1], in [2], in test [4], in test [5], in [6] and in test [7] was above 100 µM in each case. Further, the TGI in test [8] is above 100 µM.

Turning to `CC[C@@]1(O)C(=O)OCc2c1cc1n(c2=O)Cc2cc3c(NC(C)=O)c(O)ccc3nc2-1`, the GI50 is 2.41 µM in [1]; 0.133 µM in [2]; 0.456 µM in test [3]; 1.68 µM in [4]; 5.9 µM in test [5]; 4.83 µM in test [6]. The GI50 in [7] is 0.252 µM; in [8], 0.214 µM. The TGI in [1] was 24.6 µM; in [2] it was 0.968 µM; in test [3] it was above 20.8 µM; in [4] it was above 100 µM; in test [5], 22.5 µM; in [6], 65.5 µM. Further, the results for the TGI in test [7] and in test [8] were 4.46 µM and 0.631 µM, respectively.

As to `CCOc1cccnc1/C=N/NC(N)=S`, the GI50 is 4.53 µM in test [9]; 4.26 µM in test [1]; 3.13 µM in test [2]; 4.85 µM in test [10]; 3.5 µM in [3]; 3.34 µM in [4]. Moreover, the GI50 in test [5] was 3.95 µM; in test [7] it was 2.9 µM; in test [8], 3.71 µM. Also, the TGI was above 100 µM in test [9]; above 100 µM in [1]; 10.4 µM in test [2]; above 100 µM in test [10]; above 100 µM in test [3]; above 100 µM in test [4]. For the same molecule, the TGI is above 100 µM in [5], above 100 µM in [7] and 48.5 µM in test [8].

As for `Cn1c(COC(=O)NCCN2CCOCC2)nc2c(N3CCOCC3)nc(-c3ccccc3)nc21`, the GI50 in [9] was 1.07 µM; in test [1], 0.397 µM; in [2], 0.972 µM; in [3] it was 1.03 µM; in test [4], 1.39 µM; in test [5] it was 1.44 µM. The figures for the GI50 in test [6], in test [7] and in test [8] were 1.56 µM, 1.37 µM and 1.29 µM, respectively. The TGI was 2.47 µM in [9]; 1.7 µM in test [1]; 5.96 µM in test [2]; 2.6 µM in test [3]; 3.73 µM in test [4]; 2.83 µM in test [5]. Also, the TGI in [6] was determined as 3.02 µM; in [7] it was 2.9 µM; in [8], 3.3 µM.

Turning to `O=C1c2ccccc2C(=O)c2c1ccc1c3ccccc3n(Cc3ccccc3)c21`, the TGI in test [1], in test [2], in test [3], in [4], in [6] and in test [8] was above 100 µM in each case.

Regarding `O=C1/C(=C/c2ccccc2)CN(C(=O)OCC(Cl)(Cl)Cl)C/C1=C\c1ccccc1`, the TGI in [1] worked out at 2.6 µM; in test [2] it was 10.3 µM; in test [3], 3.56 µM; in test [4], 20.5 µM; in test [5], 6.29 µM; in test [6] it was 11.9 µM. The same molecule showed a TGI in test [7] of 3.28 µM.

As to `O=C1c2cccc3cccc(c23)C(=O)N1CCCN1CCN(CCCN2C(=O)c3cccc4cccc(c34)C2=O)CC1`, the TGI in [1], in test [2], in test [3], in [4], in test [5] and in test [6] was above 100 µM throughout. The TGI in [7] and in test [8] was above 100 µM throughout.

As to `CCOC(=N)CC(=O)NC(C)c1ccccc1` (stereo unspecified), the TGI in test [1], in test [2], in test [3], in test [4], in test [5] and in [6] was above 100 µM each time. Moreover, the TGI in test [7] and in [8] was above 100 µM in each case.

As for `COc1ccc(-n2nc(C)c3c2N(C)C2(C)C[C@@H]4C3(C)[C@@H]3CC4(C2)N(C)c2c(c(C)nn2-c2ccc(OC)cc2)[C@H]3C)cc1` (stereo partly specified), the GI50 in test [1] is 2.09 µM; in [10], 2.44 µM; in test [3], 8.06 µM; in [4], 3.29 µM; in test [5], 3.95 µM; in test [6], 6.34 µM. Moreover, the GI50 was 3.94 µM in test [7] and 3.1 µM in test [8]. Further, the TGI in test [1] is above 100 µM; in test [10] it was 81.9 µM; in test [3], above 100 µM; in test [4], above 100 µM; in test [5] it was 26.9 µM; in test [6], above 100 µM. Further, the TGI turned out to be 22.5 µM in test [7] and 10.5 µM in test [8].
